Reference: patent US4749690A, “Treatment of allergy with thymopentin” (Ortho Pharmaceutical Corporation, priority 1986, dated 1988)
Entries after “also recorded” stand apart in the source; their conditions may differ. No end group written: not given here.

What was measured:
[1] = test system: T lymphocytes; settings: background art; cited from earlier work
[2] = test system: patients with Ragweed Hay Fever; assay: double-blind placebo-controlled phase II study, patient-diary hay fever symptom counts; type: in vivo, human; settings: for Average # Weekly Symptoms, Severe / Average # Weekly Symptoms, Total / Average # Weekly Symptoms, Mild: average per subject over weeks 3-12; for hay fever symptoms compared with placebo group (in words): 12 weeks
From the text: Each group was given a subcutaneous injection three times a week and an intravenous injection once a week; in the first group the first injection was thymopentin while the second was placebo, in the second group the first injection was placebo and the second thymopentin, while in the third group both injections were placebo. […] The application of the present invention is illustrated by the clinical study on thymopentin in the treatment of patients with Ragweed Hay Fever given in the Example which follows. Thirty (30) patients with a proven history of ragweed hay fever, who fulfill all of the inclusion criteria and none of the exclusion criteria, were enrolled in this single site study. This invention was a placebo-controlled phase II safety and efficacy study of Thymopentin (TP5) in the treatment of patients with Ragwood Hay Fever. Thirty (30) patients were assigned to either TP5 or placebo according to a double blind randomization schedule. Ten (10) patients were assigned to each of three (3) treatment groups described as follows. Group 1 received 1.0 ml TP5 (50 mg/ml) subcutaneously three (3) times per week and 5.0 ml placebo intravenously once weekly for twelve (12) weeks. Group 2 received 1.0 ml placebo subcutaneously three (3) times per week and 5.0 ml TP5 (20 mg/ml) intravenously once weekly for twelve (12) weeks. Group 3 received 1.0 ml placebo subcutaneously three (3) times per week and 5.0 ml placebo intravenously once weekly for twelve (12) weeks. 1. Each patient received subcutaneous injections three (3) times per week and one intravenous injection per week for twelve weeks, according to the group randomization schedule described above. 2. All patients received a diary in which allergy medication (chlortrimeton) taken during the course of the study and symptoms related to Ragweed Hay Fever were documented. Patients received specific instructions pertaining to continued maintenance of their symptom and medication diaries. The diaries were reviewed weekly and returned upon termination of treatment. Each of the thirty subjects recorded twice daily the occurrence of five symptoms using the mutually exclusive scores "none", "mild", and "severe". The efficacy of treatment was determined by comparison of the average weekly number of mild and severe symptoms per subject. In one analysis, a score was created for each subject based upon the number of times certain symptoms were noted over the ten-week period of study. Each occurrence of a mild or severe symptom was scored as "1" and the average weekly score over the ten weeks for which data were collected was computed for each subject. Pair-wise comparisons were made among the three groups using a standard t-test. […] A more detailed analysis used a repeated measures analysis of variance, in which the total weekly symptoms were compared on a week-by-week basis. The results are presented in Table II and graphically in FIGS. 1 through 3. This analysis indicates high significance among the three groups with respect to severe symptoms and all symptoms.

For RKDVY [TP5, H-ARG-LYS-ASP-VAL-TYR-OH], the “differentiation of T lymphocytes (in words)” value [1] is listed as “selectively stimulate the differentiation of T lymphocytes”, the “Average number of symptoms per week per subject, Cough Mild” value ([2]; Group 1 (TP5 sc)) is listed as 0.14 and the “Average number of symptoms per week per subject, Cough Sev.” value ([2]; Group 1 (TP5 sc)) is listed as 0.02. For the same substance, the “Average number of symptoms per week per subject, Itchy Eyes Mild” value ([2]; Group 1 (TP5 sc)) was 2.45, the “Average number of symptoms per week per subject, Itchy Eyes Sev.” value ([2]; Group 1 (TP5 sc)) was 0.18 and the “Average number of symptoms per week per subject, Red Eyes Mild” value ([2]; Group 1 (TP5 sc)) was 1.12. For the same substance, the “Average number of symptoms per week per subject, Red Eyes Sev.” value ([2]; Group 1 (TP5 sc)) was 0.12, the “Average number of symptoms per week per subject, Runny Nose Mild” value ([2]; Group 1 (TP5 sc)) was 3.51 and the “Average number of symptoms per week per subject, Runny Nose Sev.” value ([2]; Group 1 (TP5 sc)) was 1.86. The “Average number of symptoms per week per subject, Sneezing Mild” value ([2]; Group 1 (TP5 sc)) was 2.97, the “Average number of symptoms per week per subject, Sneezing Sev.” value ([2]; Group 1 (TP5 sc)) was 0.46 and the “Average # Weekly Symptoms, Severe” value ([2]; Group 1, TP5 50 mg s.c. 3x/week, p vs placebo .1382) was 2.64. The “Average # Weekly Symptoms, Total” value ([2]; Group 1, TP5 50 mg s.c. 3x/week, p vs placebo .1394) was 12.84, the “Average # Weekly Symptoms, Mild” value ([2]; Group 1, TP5 50 mg s.c. 3x/week, p vs placebo .3059) was 10.20 and the “hay fever symptoms compared with placebo group (in words)” value ([2]; Group 1, thymopentin 50 mg subcutaneously three times per week, listed as Thymopentin) was “the difference from placebo is not statistically significant; also recorded: decreasing the number of severe hay fever symptoms”. The “hay fever symptoms compared with placebo group (in words)” value ([2]; Group 1, thymopentin 50 mg subcutaneously three times per week, listed as thymopentin) was “experienced fewer symptoms than group 3; also recorded: effective regimens to palliate allergic symptoms”, the “Total Mild & Severe Symptoms Combined, average weekly number” value (shortened to “Total Mild & Severe Symptoms Combined”) ([2]; Group 1 TP5 s.c., week 3) was 5.78 and the “Total Mild Symptoms, average weekly number” value (“Total Mild Symptoms” for short) ([2]; Group 1 TP5 s.c., week 3) was 5.22. For the same substance, the “Total Severe Symptoms, average weekly number” value (from here on “Total Severe Symptoms”) ([2]; Group 1 TP5 s.c., week 3) was 0.56, the “Total Mild & Severe Symptoms Combined” value ([2]; Group 1 TP5 s.c., week 4) was 9.22 and the “Total Mild Symptoms” value ([2]; Group 1 TP5 s.c., week 4) was 8.11. For the same substance, the “Total Severe Symptoms” value ([2]; Group 1 TP5 s.c., week 4) was 1.11, the “Total Mild & Severe Symptoms Combined” value ([2]; Group 1 TP5 s.c., week 5) was 9.78 and the “Total Mild Symptoms” value ([2]; Group 1 TP5 s.c., week 5) was 9.00. For the same substance, the “Total Severe Symptoms” value ([2]; Group 1 TP5 s.c., week 5) was 0.78, the “Total Mild & Severe Symptoms Combined” value ([2]; Group 1 TP5 s.c., week 6) was 11.56 and the “Total Mild Symptoms” value ([2]; Group 1 TP5 s.c., week 6) was 10.11. The “Total Severe Symptoms” value ([2]; Group 1 TP5 s.c., week 6) was 1.44, the “Total Mild & Severe Symptoms Combined” value ([2]; Group 1 TP5 s.c., week 7) was 14.44 and the “Total Mild Symptoms” value ([2]; Group 1 TP5 s.c., week 7) was 13.11. For the same substance, the “Total Severe Symptoms” value ([2]; Group 1 TP5 s.c., week 7) was 1.33, the “Total Mild & Severe Symptoms Combined” value ([2]; Group 1 TP5 s.c., week 8) was 16.33 and the “Total Mild Symptoms” value ([2]; Group 1 TP5 s.c., week 8) was 14.44. For the same substance, the “Total Severe Symptoms” value ([2]; Group 1 TP5 s.c., week 8) was 1.89, the “Total Mild & Severe Symptoms Combined” value ([2]; Group 1 TP5 s.c., week 9) was 19.67 and the “Total Mild Symptoms” value ([2]; Group 1 TP5 s.c., week 9) was 18.56. The “Total Severe Symptoms” value ([2]; Group 1 TP5 s.c., week 9) was 1.11, the “Total Mild & Severe Symptoms Combined” value ([2]; Group 1 TP5 s.c., week 10) was 17.78 and the “Total Mild Symptoms” value ([2]; Group 1 TP5 s.c., week 10) was 15.22. For the same substance, the “Total Severe Symptoms” value ([2]; Group 1 TP5 s.c., week 10) was 2.56, the “Total Mild & Severe Symptoms Combined” value ([2]; Group 1 TP5 s.c., week 11) was 16.89 and the “Total Mild Symptoms” value ([2]; Group 1 TP5 s.c., week 11) was 13.11. The “Total Severe Symptoms” value ([2]; Group 1 TP5 s.c., week 11) was 3.78, the “Total Mild & Severe Symptoms Combined” value ([2]; Group 1 TP5 s.c., week 12) was 5.89 and the “Total Mild Symptoms” value ([2]; Group 1 TP5 s.c., week 12) was 5.67. The “Total Severe Symptoms” value ([2]; Group 1 TP5 s.c., week 12) was 0.22, the “Average number of symptoms per week per subject, Cough Mild” value ([2]; Group 2 (TP5 iv)) was 0.48 and the “Average number of symptoms per week per subject, Cough Sev.” value ([2]; Group 2 (TP5 iv)) was 0.03. For the same substance, the “Average number of symptoms per week per subject, Itchy Eyes Mild” value ([2]; Group 2 (TP5 iv)) was 0.84, the “Average number of symptoms per week per subject, Itchy Eyes Sev.” value ([2]; Group 2 (TP5 iv)) was 0.25 and the “Average number of symptoms per week per subject, Red Eyes Mild” value ([2]; Group 2 (TP5 iv)) was 0.75. The “Average number of symptoms per week per subject, Red Eyes Sev.” value ([2]; Group 2 (TP5 iv)) was 0.08, the “Average number of symptoms per week per subject, Runny Nose Mild” value ([2]; Group 2 (TP5 iv)) was 3.03 and the “Average number of symptoms per week per subject, Runny Nose Sev.” value ([2]; Group 2 (TP5 iv)) was 0.80. The “Average number of symptoms per week per subject, Sneezing Mild” value ([2]; Group 2 (TP5 iv)) was 2.33, the “Average number of symptoms per week per subject, Sneezing Sev.” value ([2]; Group 2 (TP5 iv)) was 0.61 and the “Average # Weekly Symptoms, Total” value ([2]; Group 2, TP5 100 mg i.v. once weekly, p vs placebo .0145) was 9.20. The “Average # Weekly Symptoms, Severe” value ([2]; Group 2, TP5 100 mg i.v. once weekly, p vs placebo .0232) was 1.77, the “Average # Weekly Symptoms, Mild” value ([2]; Group 2, TP5 100 mg i.v. once weekly, p vs placebo .0257) was 7.43 and the “hay fever symptoms compared with placebo group (in words)” value ([2]; Group 2, thymopentin 100 mg intravenously once per week, listed as Thymopentin) was “statistically significant difference from group 3; also recorded: decreasing the number of severe hay fever symptoms”. The “hay fever symptoms compared with placebo group (in words)” value ([2]; Group 2, thymopentin 100 mg intravenously once per week, listed as thymopentin) was “This difference was statistically significant for group 2; also recorded: effective regimens to palliate allergic symptoms”, the “Total Mild & Severe Symptoms Combined” value ([2]; Group 2 TP5 i.v., week 3) was 5.43 and the “Total Mild Symptoms” value ([2]; Group 2 TP5 i.v., week 3) was 4.43. For the same substance, the “Total Severe Symptoms” value ([2]; Group 2 TP5 i.v., week 3) was 1.0, the “Total Mild & Severe Symptoms Combined” value ([2]; Group 2 TP5 i.v., week 4) was 8.86 and the “Total Mild Symptoms” value ([2]; Group 2 TP5 i.v., week 4) was 8.43. For the same substance, the “Total Severe Symptoms” value ([2]; Group 2 TP5 i.v., week 4) was 0.43, the “Total Mild & Severe Symptoms Combined” value ([2]; Group 2 TP5 i.v., week 5) was 7.00 and the “Total Mild Symptoms” value ([2]; Group 2 TP5 i.v., week 5) was 6.71. For the same substance, the “Total Severe Symptoms” value ([2]; Group 2 TP5 i.v., week 5) was 0.29, the “Total Mild & Severe Symptoms Combined” value ([2]; Group 2 TP5 i.v., week 6) was 10.86 and the “Total Mild Symptoms” value ([2]; Group 2 TP5 i.v., week 6) was 9.29. The “Total Severe Symptoms” value ([2]; Group 2 TP5 i.v., week 6) was 1.57, the “Total Mild & Severe Symptoms Combined” value ([2]; Group 2 TP5 i.v., week 7) was 9.00 and the “Total Mild Symptoms” value ([2]; Group 2 TP5 i.v., week 7) was 8.00. For the same substance, the “Total Severe Symptoms” value ([2]; Group 2 TP5 i.v., week 7) was 1.00, the “Total Mild & Severe Symptoms Combined” value ([2]; Group 2 TP5 i.v., week 8) was 11.00 and the “Total Mild Symptoms” value ([2]; Group 2 TP5 i.v., week 8) was 8.57. For the same substance, the “Total Severe Symptoms” value ([2]; Group 2 TP5 i.v., week 8) was 2.43, the “Total Mild & Severe Symptoms Combined” value ([2]; Group 2 TP5 i.v., week 9) was 8.14 and the “Total Mild Symptoms” value ([2]; Group 2 TP5 i.v., week 9) was 7.71. For the same substance, the “Total Severe Symptoms” value ([2]; Group 2 TP5 i.v., week 9) was 0.43, the “Total Mild & Severe Symptoms Combined” value ([2]; Group 2 TP5 i.v., week 10) was 5.14 and the “Total Mild Symptoms” value ([2]; Group 2 TP5 i.v., week 10) was 4.71. The “Total Severe Symptoms” value ([2]; Group 2 TP5 i.v., week 10) was 0.43, the “Total Mild & Severe Symptoms Combined” value ([2]; Group 2 TP5 i.v., week 11) was 5.43 and the “Total Mild Symptoms” value ([2]; Group 2 TP5 i.v., week 11) was 5.14. For the same substance, the “Total Severe Symptoms” value ([2]; Group 2 TP5 i.v., week 11) was 0.29, the “Total Mild & Severe Symptoms Combined” value ([2]; Group 2 TP5 i.v., week 12) was 1.71 and the “Total Mild Symptoms” value ([2]; Group 2 TP5 i.v., week 12) was 1.57. The “Total Severe Symptoms” value ([2]; Group 2 TP5 i.v., week 12) was 0.14, the “alleviating the symptoms of allergic rhinitis compared to placebo (in words)” value ([2]; double-blind study, route not specified) was “statistically significant compared to placebo” and the “safety (in words)” value ([2]; general statement) was “very safe drug”.
